The text below walks through data of PubChem BioAssay AID504578 (NMMLSC, 2011).

The experiment has as its system U937 / B78H1-VCAM-1 aggregate disruption, flow cytometry. As to the kind of experiment: allosteric VLA-4 inhibitors disrupting cell aggregates, orthogonal assay, flow cytometry, set 1 (AID 504578). As to conditions: at 20 µM; active compounds read high. A general note: In flow cytometry, cells or beads pass a laser one at a time.
As to `COc1cccc(-c2sc3ccccc3c2-c2ccc(OCCN3CCCC3)cc2)c1`, the disaggregation rating was 1. For `CN(C)CCOc1ccc(-c2c(-c3ccccc3)sc3ccccc23)cc1`, the disaggregation rating is 2. In the case of `c1ccc2c(-c3ccc(OCCN4CCCC4)cc3)c(-c3ccsc3)sc2c1`, the disaggregation rating was 2.

`c1ccc(-c2sc3ccccc3c2-c2ccc(OCCN3CCCC3)cc2)cc1`: the disaggregation rating is 1. Take `c1ccc2c(-c3ccc(OCCN4CCCCC4)cc3)c(-c3ccsc3)sc2c1`: the disaggregation rating was 1.

For the compound `COc1cccc(-c2sc3ccccc3c2-c2ccc(OCCN(C)C)cc2)c1`, the disaggregation rating is 1. Next, `COc1ccc(-c2sc3ccccc3c2-c2ccc(OCCN(C)C)cc2)cc1`: 2.
